Read-outs that look alike come from different tables or passages of the source.
Key:
[1] = tested on: H3K27 methylation in G401 cell; experiment: ELISA (H3K27 methylation) assay in G401 cells; type: cell-based, human
Summary of the method: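 IC50 from dose-response fit of percent inhibition relative to DMSO, using H3K27me3/me2 ELISA signal (ECL) normalized to histone H3. Histones HCl-extracted after 48 h compound exposure of G401 cells at up to 20 μM, 8- or 12-point 3-fold series.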

[2] = molecular target: wild type PRC2 (wtPRC2) complex (Homo sapiens, UniProt O75530); experiment: EED LC-MS assay (SAH production by PRC2); type: biochemical; details: read-out: (b) IC50, EED LC-MS Qualified
wild type PRC2 (wtPRC2) complex, sequence (O75530 whole entry): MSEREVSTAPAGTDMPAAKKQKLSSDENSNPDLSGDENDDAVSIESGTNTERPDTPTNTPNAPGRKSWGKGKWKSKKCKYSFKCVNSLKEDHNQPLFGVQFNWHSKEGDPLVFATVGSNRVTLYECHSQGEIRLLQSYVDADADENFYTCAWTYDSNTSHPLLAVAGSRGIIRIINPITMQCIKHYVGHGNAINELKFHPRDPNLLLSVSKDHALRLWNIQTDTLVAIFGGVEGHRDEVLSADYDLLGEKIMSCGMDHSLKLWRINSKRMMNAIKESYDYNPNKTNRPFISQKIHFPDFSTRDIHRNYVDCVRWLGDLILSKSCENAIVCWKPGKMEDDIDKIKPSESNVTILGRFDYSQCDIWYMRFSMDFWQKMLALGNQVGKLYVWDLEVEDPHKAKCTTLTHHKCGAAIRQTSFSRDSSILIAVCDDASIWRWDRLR
wild type PRC2 (wtPRC2) complex, sequence (Q15910 whole entry partner): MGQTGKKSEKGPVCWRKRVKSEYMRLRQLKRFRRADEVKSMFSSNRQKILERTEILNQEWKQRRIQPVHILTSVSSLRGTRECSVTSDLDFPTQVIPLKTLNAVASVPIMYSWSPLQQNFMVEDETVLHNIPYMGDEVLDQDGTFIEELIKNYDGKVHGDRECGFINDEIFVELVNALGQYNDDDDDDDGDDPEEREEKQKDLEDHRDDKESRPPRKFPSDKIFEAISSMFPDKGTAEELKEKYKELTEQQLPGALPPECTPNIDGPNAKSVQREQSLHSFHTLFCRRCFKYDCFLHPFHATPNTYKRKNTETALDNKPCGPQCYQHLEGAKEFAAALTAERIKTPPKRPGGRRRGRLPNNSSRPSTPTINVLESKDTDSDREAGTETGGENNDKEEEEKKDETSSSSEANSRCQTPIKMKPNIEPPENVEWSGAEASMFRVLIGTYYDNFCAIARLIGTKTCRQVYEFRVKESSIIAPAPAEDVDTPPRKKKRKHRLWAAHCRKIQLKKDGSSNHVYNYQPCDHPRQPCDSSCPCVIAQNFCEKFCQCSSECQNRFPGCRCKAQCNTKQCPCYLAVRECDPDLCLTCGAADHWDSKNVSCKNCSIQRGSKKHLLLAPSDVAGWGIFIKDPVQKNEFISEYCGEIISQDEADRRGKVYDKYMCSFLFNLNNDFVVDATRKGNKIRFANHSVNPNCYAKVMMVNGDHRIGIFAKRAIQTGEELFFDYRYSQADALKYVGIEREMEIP
wild type PRC2 (wtPRC2) complex, sequence (Q15022 whole entry partner): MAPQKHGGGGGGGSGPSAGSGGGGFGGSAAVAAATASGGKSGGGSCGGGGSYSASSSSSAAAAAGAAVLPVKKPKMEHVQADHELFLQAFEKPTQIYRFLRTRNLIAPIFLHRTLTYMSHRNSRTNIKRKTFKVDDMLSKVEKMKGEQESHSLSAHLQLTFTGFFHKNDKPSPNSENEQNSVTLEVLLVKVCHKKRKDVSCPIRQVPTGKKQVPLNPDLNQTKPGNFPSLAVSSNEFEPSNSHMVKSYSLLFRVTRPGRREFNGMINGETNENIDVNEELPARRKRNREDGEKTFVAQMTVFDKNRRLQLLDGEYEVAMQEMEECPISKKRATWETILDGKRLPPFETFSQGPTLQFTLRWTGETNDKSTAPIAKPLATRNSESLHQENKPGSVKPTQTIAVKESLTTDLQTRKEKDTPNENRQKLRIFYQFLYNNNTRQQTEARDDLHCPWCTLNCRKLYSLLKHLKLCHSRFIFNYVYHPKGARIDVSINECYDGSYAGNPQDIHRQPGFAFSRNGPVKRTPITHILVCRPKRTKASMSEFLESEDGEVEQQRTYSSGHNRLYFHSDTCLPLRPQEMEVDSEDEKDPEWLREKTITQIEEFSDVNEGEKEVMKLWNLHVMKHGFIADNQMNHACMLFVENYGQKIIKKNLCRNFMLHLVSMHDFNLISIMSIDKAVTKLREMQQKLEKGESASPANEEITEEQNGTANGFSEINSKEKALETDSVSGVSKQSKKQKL
wild type PRC2 (wtPRC2) complex, sequence (Q09028 whole entry partner): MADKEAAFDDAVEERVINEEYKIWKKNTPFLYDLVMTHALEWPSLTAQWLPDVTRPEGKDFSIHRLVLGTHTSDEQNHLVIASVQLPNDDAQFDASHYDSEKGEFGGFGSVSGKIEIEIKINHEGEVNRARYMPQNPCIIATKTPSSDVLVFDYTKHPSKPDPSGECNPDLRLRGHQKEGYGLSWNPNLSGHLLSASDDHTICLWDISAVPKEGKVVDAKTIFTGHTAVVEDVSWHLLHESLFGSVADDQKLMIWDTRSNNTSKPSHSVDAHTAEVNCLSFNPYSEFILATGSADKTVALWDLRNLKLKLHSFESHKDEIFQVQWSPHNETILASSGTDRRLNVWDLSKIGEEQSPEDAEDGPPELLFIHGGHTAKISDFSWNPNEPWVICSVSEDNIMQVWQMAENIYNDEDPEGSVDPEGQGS
wild type PRC2 (wtPRC2) complex, sequence (Q6ZN18 whole entry partner): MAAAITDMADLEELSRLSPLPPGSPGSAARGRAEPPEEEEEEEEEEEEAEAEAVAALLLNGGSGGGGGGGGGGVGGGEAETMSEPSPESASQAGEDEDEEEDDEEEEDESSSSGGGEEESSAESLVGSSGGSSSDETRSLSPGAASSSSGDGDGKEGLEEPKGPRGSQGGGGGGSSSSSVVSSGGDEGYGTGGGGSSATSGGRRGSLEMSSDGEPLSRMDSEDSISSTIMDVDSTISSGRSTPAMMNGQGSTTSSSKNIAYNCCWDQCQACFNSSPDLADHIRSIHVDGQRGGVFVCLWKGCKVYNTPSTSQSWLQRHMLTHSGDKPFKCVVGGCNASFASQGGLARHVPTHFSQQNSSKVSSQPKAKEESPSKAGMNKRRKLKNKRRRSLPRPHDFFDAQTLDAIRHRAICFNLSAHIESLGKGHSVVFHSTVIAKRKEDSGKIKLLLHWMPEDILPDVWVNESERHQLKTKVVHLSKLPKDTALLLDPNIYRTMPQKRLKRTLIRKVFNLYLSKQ
Description: Compounds of the present invention were assessed for their ability to inhibit PRC2 activity in a pentameric complex of EZH2, SUZ12, EED, Rbap48 and AEBP in biochemical assays. The ability of compounds of the present invention to inhibit cellular activity of PRC2 was assessed by analysing histone H3 lysine 27 methylation in human cell lines. The ability of compounds of the present invention to inhibit cancers was derived from their ability to modulate activity in human cancer cell lines bearing specific dependence to PRC2 activity to maintain cancerous growth.
Representative compounds of the present invention were serially and separately diluted 3-fold in DMSO to obtain a total of eight or twelve concentrations. Then the test compounds at each concentration (120 nL of each) were transferred by Mosquito into a 384-well Perkin Elmer ProxiPlate 384 plus plates. Solutions (6 μL) of 24 nM the wild type PRC2 (wtPRC2) complex and 2 μM SAM in reaction buffer (20 mM Tris, pH 8.0, 0.1% BSA, 0.01% Triton, 0.5 mM DTT) were added to the wells that were then incubated with the test compound for 20 min. A 6 μL solution of 3 μM of the peptide substrate H3K27Me0 (histone H3[21-44]-biotin) in reaction buffer was added to initiate each reaction. The final components in the reaction solution include 12 nM wtPRC2 complex, 1 μM SAM, and 1.5 μM H3K27me0 peptide with varying concentration of the compounds. A positive control consisted of the enzyme, 1 μM SAM and 1.5 μM substrate in the absence of the test compound, and a negative control consisted of 1 μM SAM and 1.5 μM substrate only. Each reaction was incubated at rt for 120 min, then stopped by addition of 3 μL per of quench solution (2.5% TFA with 320 nM d4-SAH). The reaction mixture was centrifuged (Eppendorf centrifuge 5810, Rotor A-4-62) for 2 min at 2000 rpm and read on an API 4000 triple quadrupole mass spec with Turbulon Spray (Applied Biosystem) coupled with Prominence UFLC (Shimadzu). The levels of SAH production were then normalized based on the values coming from the positive and negative controls to give percent enzyme activities. The data were then fit to a dose response equation using the program Helios to get the IC50 values of the test compound.

EED (1-441)-His protein = molecular target: T1, EED (1-441)-His protein (Homo sapiens, UniProt O75530); experiment: EED-H3K27Me3 peptide competition binding assay by AlphaScreen
T1 construct: 30 nM EED (1-441)-His protein
T1 sequence (O75530 whole entry): as the sequence (O75530 whole entry) above
Summary of the method: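 Serially diluted compound (12 points, 3-fold) incubated 20 min with 30 nM EED(1-441)-His and 15 nM biotin-H3K27Me3(19-33) peptide in 25 mM HEPES pH 8, 0.02% Tween-20, 0.5% BSA. Ni-chelate acceptor/streptavidin donor beads (10 μg/mL each) added, 1 h rt dark; 615 nm emission normalized to controls, dose-response fit for IC50.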

[3] = Homo sapiens, G-401, read-out: (c) IC50, ELISA Qualified
[4] = read-out: (a) IC50, EED Alphascreen binding Qualified
[5] = Homo sapiens, G-401, read-out: (c) IC50 ELISA Qualified
[6] = read-out: (a) IC50 EED Alphascreen binding Qualified

Row | IC50 [1, 3] | IC50 [2] | IC50 (EED (1-441)-His protein; [4]) | IC50 ([1]; read-out: (c) IC50, ELISA Qualified) | IC50 [1, 5] | IC50 (EED (1-441)-His protein; [6]) | Compound
1 | 18.1 nM | 11.2 nM | 27.7 nM |  |  |  | COc1cccc(F)c1CNc1ccc(-c2ccnn2C)c2nncn12 [Example 1, N-(2-Fluoro-6-methoxybenzyl)-8-(1-methyl-1H-pyrazol-5-yl)-[1,2,4]triazolo[4,3-a]pyridin-5-amine]
2 | 8.7 nM | 18.8 nM | 10.9 nM |  |  |  | COc1cccc(F)c1CNc1ccc(-c2cccnc2C)c2nncn12 [Example 2, N-(2-Fluoro-6-methoxybenzyl)-8-(2-methylpyridin-3-yl)-[1,2,4]triazolo[4,3-a]pyridin-5-amine]
3 | 10.7 nM | 23.6 nM | 17.5 nM |  |  |  | COc1cccc(F)c1CNc1ccc(-c2cnc(C)nc2C)c2nncn12 [Example 3, 8-(2,4-Dimethylpyrimidin-5-yl)-N-(2-fluoro-6-methoxybenzyl)-[1,2,4]triazolo[4,3-a]pyridin-5-amine]
4 | 5.7 nM | 6.6 nM | 8.6 nM |  |  |  | COc1cccc(F)c1CNc1ccc(-c2cnc(CC(C)C)nc2C)c2nncn12 [Example 4, N-(2-Fluoro-6-methoxybenzyl)-8-(2-isobutyl-4-methylpyrimidin-5-yl)-[1,2,4]triazolo[4,3a]-pyridin-5-amine]
5 | 42.6 nM | 137 nM | 48.2 nM |  |  |  | COc1cccc(F)c1CNc1ccc(-c2ccccn2)c2nncn12 [Example 5, N-(2-Fluoro-6-methoxybenzyl)-8-(pyridin-2-yl)-[1,2,4]triazolo[4,3-a]pyridin-5-amine]
6 | 57 nM | 149 nM | 90.9 nM |  |  |  | COc1cccc(F)c1CNc1ccc(-c2ncccc2C)c2nncn12 [Example 6, N-(2-Fluoro-6-methoxybenzyl)-8-(3-methylpyridin-2-yl)-[1,2,4]triazolo[4,3-a]pyridin-5-amine]
7 | 10.1 nM | 11.4 nM | 18.7 nM |  |  |  | COc1cccc(F)c1CNc1ccc(-n2cc(C)nc2C)c2nncn12 [Example 7, 8-(2,4-Dimethyl-1H-imidazol-1-yl)-N-(2-fluoro-6-methoxybenzyl)-[1,2,4]triazolo[4,3-a]pyridin-5-amine]
8 | 4.3 nM | 35.2 nM | 10.6 nM |  |  |  | COc1cccc(F)c1CNc1ccc(-c2cncn2C)c2nncn12 [Example 8]
9 | 2.4 nM | 62.4 nM | 33.9 nM |  |  |  | COc1cccc(F)c1CNc1ccc(-c2nnc(C)o2)c2nncn12 [Example 9, N-(2-Fluoro-6-methoxybenzyl)-8-(5-methyl-1,3,4-oxadiazol-2-yl)-[1,2,4]triazolo[4,3-a]pyridin-5-amine]
10 |  | 198 nM | 61.1 nM | 9.3 nM |  |  | CCc1nc(-c2ccc(NCc3c(F)cccc3OC)n3cnnc23)no1 [Example 10, 8-(5-Ethyl-1,2,4-oxadiazol-3-yl)-N-(2-fluoro-6-methoxybenzy)-[1,2,4]triazolo[4,3-a]pyridin-5-amine]
11 | 40.5 nM | 119 nM | 30.7 nM |  |  |  | COc1cccc(F)c1CNc1ccc(-c2nc(C)no2)c2nncn12 [Example 11, N-(2-Fluoro-6-methoxybenzyl)-8-(3-methyl-1,2,4-oxadiazol-5-yl)-[1,2,4]triazolo[4,3-a]pyridin-5-amine]
12 | 17.5 nM | 66.3 nM | 14.9 nM |  |  |  | COc1ccccc1CNc1ccc(-c2ccc(CN(C)C)cc2)c2nncn12 [Example 15, 8-(4-((dimethylamino)methyl)phenyl)-N-(2-methoxybenzyl)-[1,2,4] triazolo[4,3-a]pyridin-5-amine]
13 | 158 nM | 377 nM | 56.2 nM |  |  |  | COc1ccc(-c2ccc(NCc3ccccc3OC)n3cnnc23)cn1 [Example 16, N-(2-methoxybenzyl)-8-(6-methoxypyridin-3-yl)-[1,2,4] triazolo[4,3-a]pyridin-5-amine]
14 | 114 nM | 930 nM | 81.7 nM |  |  |  | COc1ccccc1CNc1ccc(-c2ccc(S(=O)(=O)N3CCN(C)CC3)cc2)c2nncn12 [Example 18, N-(2-methoxybenzyl)-8-(4-((4-methylpiperazin-1-yl)sulfonyl)phenyl)-[1,2,4] triazolo[4,3-a]pyridin-5-amine]
15 | 363 nM | 587 nM | 169 nM |  |  |  | CN(C)Cc1ccc(-c2ccc(NCc3ccccc3OC(F)F)n3cnnc23)cc1 [Example 19, N-(2-(difluoromethoxy)benzyl)-8-(4-((dimethylamino)methyl)phenyl)-[1,2,4]triazolo[4,3-a] pyridin-5-amine]
16 | 185 nM | 248 nM | 79 nM |  |  |  | COc1ccccc1CNc1ccc(-c2cnc(N3CCN(C)CC3)c(C)c2)c2nncn12 [Example 20, N-(2-methoxybenzyl)-8-(5-methyl-6-(4-methylpiperazin-1-yl)pyridin-3-yl)-[1,2,4]triazolo[4,3-a]pyridin-5-amine]
17 | 234 nM | 1060 nM | 124 nM |  |  |  | COc1ccccc1CNc1ccc(-c2ccc(N3CCN(C)CC3)nc2)c2nncn12 [Example 21, N-(2-methoxybenzyl)-8-(6-(4-methylpiperazin-1-yl)pyridin-3-yl)-[1,2,4] triazolo[4,3-a]pyridin-5-amine]
18 | 42.3 nM | 365 nM | 56.2 nM |  |  |  | COc1ccccc1CNc1ccc(-c2ccc(N3CCN(C)CC3)cc2)c2nncn12 [Example 22, N-(2-methoxybenzyl)-8-(4-(4-methylpiperazin-1-yl)phenyl)-[1,2,4]triazolo[4,3-a] pyridin-5-amine]
19 | 47.8 nM | 92.1 nM | 46.4 nM |  |  |  | COc1ccccc1CNc1ccc(-c2ccncc2)c2nncn12 [Example 24, N-(2-methoxybenzyl)-8-(pyridin-4-yl)-[1,2,4] triazolo[4,3-a]pyridin-5-amine]
20 | 50.3 nM | 151 nM | 33.6 nM |  |  |  | COc1ccccc1CNc1ccc(-c2ccc(S(C)(=O)=O)cc2)c2nncn12 [Example 25, N-(2-methoxybenzyl)-8-(4-(methylsulfonyl)phenyl)-[1,2,4]triazolo[4,3-a]pyridin-5-amine]
21 |  |  |  |  | 260 nM | 142 nM | COc1cccc(F)c1CNc1ccc(-c2c(C)ccnc2C)c2nncn12 [Example 346, 8-(2,4-dimethylpyridin-3-yl)-N-(2-fluoro-6-methoxybenzyl)-[1,2,4]triazolo[4,3-a] pyridin-5-amine]
22 |  |  |  |  | 771 nM | 791 nM | COc1cccnc1CNc1ccc(-c2cccnc2C)c2nncn12 [Example 347, N-((3-methoxypyridin-2-yl)methyl)-8-(2-methylpyridin-3-yl)-[1,2,4]triazolo[4,3-a] pyridin-5-amine]
23 |  |  |  |  | 3040 nM | 4090 nM | COc1cnccc1CNc1ccc(-c2cccnc2C)c2nncn12 [Example 360, N-((3-methoxypyridin-4-yl)methyl)-8-(2-methylpyridin-3-yl)-[1,2,4]triazolo[4,3-a] pyridin-5-amine]
24 |  |  |  |  | 80.6 nM | 120 nM | COc1cccc(CNc2ccc(-c3cccnc3C)c3nncn23)n1 [Example 364, N-((6-methoxypyridin-2-yl)methyl)-8-(2-methylpyridin-3-yl)-[1,2,4]triazolo[4,3-a] pyridin-5-amine]
25 |  |  |  |  | 278 nM | 197 nM | COc1cccc(F)c1CNc1ccc(-c2cn(C)c(C)n2)c2nncn12 [Example 365, 8-(1,2-dimethyl-1H-imidazol-4-yl)-N-(2-fluoro-6-methoxybenzyl)-[1,2,4] triazolo[4,3-a]pyridin-5-amine]
26 |  |  |  |  | 92.7 nM | 102 nM | COc1nccc(N)c1CNc1ccc(-c2cccnc2C)c2nncn12 [Example 371, N-((4-amino-2-methoxypyridin-3-yl)methyl)-8-(2-methylpyridin-3-yl)-[1,2,4] triazolo[4,3-a]pyridin-5-amine]
